What was measured:
[1] = molar enthalpy of vaporization or sublimation; conditions: 298.15 K; Liquid; Static calorimetry
[2] = molar heat capacity at constant pressure; conditions: 101.33 kPa, Vacuum adiabatic calorimetry

CN=C=O [methyl isocyanate]
Conditions	molar enthalpy [kcal/mol]
[1]	6.871

[2]
Conditions	molar heat capacity at constant pressure [J/K/mol]
14.71 K, Crystal	2.971
15.61 K, Crystal	3.494
16.68 K, Crystal	4.234
18.13 K, Crystal	5.318
19.93 K, Crystal	6.837
20 K, Crystal	6.9
21.81 K, Crystal	8.41
25.1 K, Crystal	11.4
27.08 K, Crystal	13.31
29.42 K, Crystal	15.5
30 K, Crystal	16.07
31.96 K, Crystal	17.95
34.72 K, Crystal	20.64
38.26 K, Crystal	23.96
40 K, Crystal	25.53
42.59 K, Crystal	27.81
47.01 K, Crystal	31.56
50 K, Crystal	34.07
51.57 K, Crystal	35.36
56.6 K, Crystal	39.11
60 K, Crystal	41.49
60.37 K, Crystal	41.76
62.3 K, Crystal	43.18
65.89 K, Crystal	45.61
70 K, Crystal	48.2
71.87 K, Crystal	49.37
78.77 K, Crystal	53.47
80 K, Crystal	54.31
85.79 K, Crystal	57.74
88.54 K, Crystal	59.08
90 K, Crystal	59.83
91.98 K, Crystal	60.67
94.33 K, Crystal	61.76
97.68 K, Crystal	63.18
100 K, Crystal	64.14
100.44 K, Crystal	64.31
102.2 K, Crystal	64.94
104.38 K, Crystal	65.94
109.48 K, Crystal	67.86
110 K, Crystal	68.03
112.6 K, Crystal	68.66
115.84 K, Crystal	69.87
118.15 K, Crystal	70.67
120 K, Crystal	71.25
120.45 K, Crystal	71.25
121.38 K, Crystal	71.63
126.84 K, Crystal	73.26
128.41 K, Crystal	73.55
130 K, Crystal	73.97
134.41 K, Crystal	75.06
134.59 K, Crystal	75.1
135.09 K, Crystal	75.27
136.89 K, Crystal	75.48
136.94 K, Crystal	75.65
140 K, Crystal	76.36
141.89 K, Crystal	76.82
141.97 K, Crystal	76.94
142.35 K, Crystal	76.96
146.02 K, Crystal	77.82
148.22 K, Crystal	78.32
149.33 K, Crystal	78.45
150 K, Crystal	78.7
151.79 K, Crystal	79.04
155.37 K, Crystal	79.91
156.39 K, Crystal	80
160 K, Crystal	81
160.19 K, Crystal	79.83
161.8 K, Crystal	81.59
163.79 K, Crystal	82.42
166.13 K, Crystal	83.6
167.44 K, Crystal	83.09
168.2 K, Crystal	82.26
169.15 K, Crystal	83.01
169.49 K, Crystal	82.34
170 K, Crystal	83.39
171.56 K, Crystal	83.51
172.5 K, Crystal	83.39
173.3 K, Crystal	84.35
180 K, Liquid	103.4
183.24 K, Liquid	103.39
186.5 K, Liquid	103.34
187.36 K, Liquid	103.26
190 K, Liquid	103.2
